# Experimental data from patent US20240182481A1 (Tango Therapeutics, Inc., priority 2021, published 2024).
# Where two headings read alike, the source gives them in different places.
# Columns and labels:
# USP1-UAF1 = USP1-UAF1 (Homo sapiens, UniProt O94782); assay: Ubiquitin Rhodamine assay for USP1-UAF1 activity; format: biochemical
# Method: Certain compounds of the disclosure were assessed for USP1-UAF1 activity in a Ubiquitin Rhodamine assay as described in Example 135.
# [1] = tested on: HCC1954 (BRCA1 WT) cell line; assay: Viability assay in BRCA1 WT cell line HCC1954; format: cell-based; conditions: read-out: HCC 1954 IC50 rel IC50
# From the text: (§1) Table 1 also indicates IC50 values in a viability assay for a non-isogenic pair of BRCA1 mutant (column 5—MDA-MB-436) and BRCA1 WT (column 6—HCC1954) cell lines. These values indicate the effect of treatment with compound on cell survival.
# [2] = tested on: MDA-MB-436 (BRCA1 mutant) cell line; assay: Viability assay in BRCA1 mutant cell line MDA-MB-436; format: cell-based; conditions: Homo sapiens, MDA-MB-436, viability, BRCA1 mutant MDA-MB-436; read-out: MDA-MB-436 rel IC50
# From the text: as §1
# Sequence of USP1-UAF1 (O94782 whole entry): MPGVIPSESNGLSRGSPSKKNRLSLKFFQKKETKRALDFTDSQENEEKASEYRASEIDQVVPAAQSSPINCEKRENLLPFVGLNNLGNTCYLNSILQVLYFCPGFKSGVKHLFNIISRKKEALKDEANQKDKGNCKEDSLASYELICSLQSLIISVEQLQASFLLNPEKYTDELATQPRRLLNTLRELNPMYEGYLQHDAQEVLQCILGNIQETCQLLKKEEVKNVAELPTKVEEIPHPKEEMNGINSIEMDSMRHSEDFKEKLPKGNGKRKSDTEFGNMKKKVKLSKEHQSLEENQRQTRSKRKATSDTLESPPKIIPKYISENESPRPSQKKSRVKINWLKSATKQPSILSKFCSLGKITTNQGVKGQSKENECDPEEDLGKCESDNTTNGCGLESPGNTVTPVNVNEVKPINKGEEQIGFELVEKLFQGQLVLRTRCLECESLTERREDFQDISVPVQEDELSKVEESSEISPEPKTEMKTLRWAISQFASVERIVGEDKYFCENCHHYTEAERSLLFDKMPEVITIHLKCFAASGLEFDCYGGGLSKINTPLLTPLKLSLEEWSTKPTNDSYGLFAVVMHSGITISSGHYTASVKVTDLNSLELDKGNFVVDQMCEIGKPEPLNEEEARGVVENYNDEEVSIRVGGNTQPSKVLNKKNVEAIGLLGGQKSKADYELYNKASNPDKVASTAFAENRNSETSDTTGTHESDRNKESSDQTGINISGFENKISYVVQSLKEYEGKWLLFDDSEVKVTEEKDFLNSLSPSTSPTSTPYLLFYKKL
# Sequence of USP1-UAF1 (Q8TAF3 whole entry partner): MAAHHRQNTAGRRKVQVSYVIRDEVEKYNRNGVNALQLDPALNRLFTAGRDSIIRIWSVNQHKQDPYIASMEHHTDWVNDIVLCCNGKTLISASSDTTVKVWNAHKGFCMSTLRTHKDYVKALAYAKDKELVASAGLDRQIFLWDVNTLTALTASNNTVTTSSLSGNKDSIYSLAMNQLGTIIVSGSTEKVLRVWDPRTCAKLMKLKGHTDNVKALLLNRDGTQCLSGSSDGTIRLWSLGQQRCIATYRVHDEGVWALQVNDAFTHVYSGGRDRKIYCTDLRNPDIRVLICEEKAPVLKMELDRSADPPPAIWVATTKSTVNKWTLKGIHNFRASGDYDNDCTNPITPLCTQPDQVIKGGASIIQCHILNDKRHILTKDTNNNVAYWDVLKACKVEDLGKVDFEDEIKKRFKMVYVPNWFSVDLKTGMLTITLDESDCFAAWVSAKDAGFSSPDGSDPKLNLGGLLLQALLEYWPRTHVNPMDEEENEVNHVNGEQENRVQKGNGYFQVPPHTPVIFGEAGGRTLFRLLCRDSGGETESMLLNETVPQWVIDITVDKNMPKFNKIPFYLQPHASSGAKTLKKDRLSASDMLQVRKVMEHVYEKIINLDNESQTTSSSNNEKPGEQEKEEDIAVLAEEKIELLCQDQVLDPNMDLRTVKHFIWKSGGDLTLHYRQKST
SMILES,IC50 (USP1-UAF1) [nM],IC50 ([1]; Homo sapiens) [nM],IC50 [2] [nM],IC50 [1] [nM]
"Cn1cc(C(F)(F)F)nc1-c1ccc(C(O)c2c[nH]c3cnc(-c4c(C(F)(F)F)cnn4C)nc23)cc1 (centres unmarked) [Compound 108, [4-[1-methyl-4-(trifluoromethyl)imidazol-2-yl]phenyl]-[2-[2-methyl-4-(trifluoromethyl)pyrazol-3-yl]-5H-pyrrolo[3,2-d]pyrimidin-7-yl]methanol]",100 to 10000,≥ 10000,250 to 10000,–
COc1ncnc(C(C)C)c1-c1ncc2[nH]nc(Cc3ccc(-c4nc(C(F)(F)F)cn4C)cc3)c2n1 [Compound 112],< 30,–,–,–
"CC(C)c1ccccc1-c1ncc2[nH]cc(CN3CCN(c4nc(C(F)(F)F)cn4C)CC3)c2n1 [Compound 35, 2-(2-isopropylphenyl)-7-[[4-[1-methyl-4-(trifluoromethyl)imidazol-2-yl]piperazin-1-yl]methyl]-5H-pyrrolo[3,2-d]pyrimidine]",100 to 10000,250 to 10000,250 to 10000,–
"COc1ncnc(C2CC2)c1-c1ncc2[nH]cc(C(O)c3ccc(-c4nc(C(F)(F)F)cn4C4CN(C)C4)cc3)c2n1 (centres unmarked) [Compound 7, (2-(4-cyclopropyl-6-methoxypyrimidin-5-yl)-5H-pyrrolo[3,2-d]pyrimidin-7-yl)(4-(1-(1-methylazetidin-3-yl)-4-(trifluoromethyl)-1H-imidazol-2-yl)phenyl)methanol]",≥ 10000,≥ 10000,≥ 10000,–
COc1ncnc(C2CC2)c1-c1nc(CN)c2[nH]cc(Cc3ccc(-c4nc(C(F)(F)F)cn4C)cc3)c2n1 [Compound 201],100 to 10000,–,–,–
"CO[C@@H](c1ccc(-c2nc(C(F)(F)F)cn2C)cc1)c1c[nH]c2cnc(-c3c(OC(F)F)ncnc3C3CC3)nc12 (single isomer, unassigned) [Compound 127]",100 to 10000,–,–,–
"Cn1cc(C(F)(F)F)nc1-c1ccc(Cc2c[nH]c3cnc(-c4ccccc4C(C)(C)O)nc23)cc1 [Compound 157, 2-(2-(7-(4-(1-methyl-4-(trifluoromethyl)-1H-imidazol-2-yl)benzyl)-5H-pyrrolo[3,2-d]pyrimidin-2-yl)phenyl)propan-2-ol]",< 30,–,–,–
"COc1ncnc(C2CC2)c1-c1ncc2[nH]cc(C(O)c3ccc(-c4nc(C(F)(F)F)cn4C(C)C)cc3)c2n1 (centres unmarked) [Compound 59, [2-(4-cyclopropyl-6-methoxy-pyrimidin-5-yl)-5H-pyrrolo[3,2-d]pyrimidin-7-yl]-[4-[1-isopropyl-4-(trifluoromethyl)imidazol-2-yl]phenyl]methanol]",100 to 10000,250 to 10000,250 to 10000,–
"Cn1cc(C(F)(F)F)nc1-c1ccc(Cc2c[nH]c3cnc(-c4cccnc4O)nc23)cc1 [Compound 56, 3-[7-([4-[1-methyl-4-(trifluoromethyl)imidazol-2-yl]phenyl]methyl)-5H-pyrrolo[3,2-d]pyrimidin-2-yl]pyridin-2-ol]",≥ 10000,≥ 10000,≥ 10000,–
CN(Cc1ccccc1-c1ncc2[nH]cc(C(O)c3ccc(-c4nc(C(F)(F)F)cn4C)cc3)c2n1)CC(F)(F)F (centres unmarked) [Compound 42],100 to 10000,≥ 10000,250 to 10000,–
"CC(C)n1cc(C(F)(F)F)nc1-c1ccc(C(O)c2c[nH]c3cnc(-c4cccnc4OC(F)F)nc23)cc1 (centres unmarked) [Compound 52, [2-[2-(difluoromethoxy)-3-pyridyl]-5H-pyrrolo[3,2-d]pyrimidin-7-yl]-[4-[1-isopropyl-4-(trifluoromethyl)imidazol-2-yl]phenyl]methanol]",100 to 10000,≥ 10000,250 to 10000,–
"CC(C)Nc1ncccc1-c1ncc2[nH]cc(Cc3ccc(-c4nc(C(F)(F)F)cn4C)cc3)c2n1 [Compound 50, N-isopropyl-3-[7-[[4-[1-methyl-4-(trifluoromethyl)imidazol-2-yl]phenyl]methyl]-5H-pyrrolo[3,2-d]pyrimidin-2-yl]pyridin-2-amine]",100 to 10000,250 to 10000,250 to 10000,–
"COc1ncnc(C2CC2)c1-c1ncc2[nH]nc(Cc3ccc(-c4nc(C(F)(F)F)cn4C(C)C)cc3)c2n1 [Compound 16, 5-(4-cyclopropyl-6-methoxy-pyrimidin-5-yl)-3-[[4-[1-isopropyl-4-(trifluoromethyl)imidazol-2-yl]phenyl]methyl]-1H-pyrazolo[4,3-d]pyrimidine]",–,≥ 10000,< 100,–
CC(C)c1ccccc1-c1ncc2c(n1)c(C(O)c1ccc(-c3nc(C(F)(F)F)cn3C)cc1)cn2Cc1ccccc1 (centres unmarked) [Compound 80],100 to 10000,≥ 10000,250 to 10000,–
"CC(C)Oc1ncccc1-c1ncc2[nH]cc(Cc3ccc(-c4nc(C(F)(F)F)cn4C)cc3)c2n1 [Compound 55, 2-isopropoxy-3-[7-([4-[1-methyl-4-(trifluoromethyl)imidazol-2-yl]phenyl]methyl)-5H-pyrrolo[3,2-d]pyrimidin-2-yl]pyridine]",< 30,≥ 10000,< 100,–
"COCCc1[nH]c2cnc(-c3c(OC)ncnc3C3CC3)nc2c1C(O)c1ccc(-c2nc(C(F)(F)F)cn2C)cc1 (centres unmarked) [Compound 109, [2-(4-cyclopropyl-6-methoxy-pyrimidin-5-yl)-6-(2-methoxyethyl)-5H-pyrrolo[3,2-d]pyrimidin-7-yl]-[4-[1-methyl-4-(trifluoromethyl)imidazol-2-yl]phenyl]methanol]",100 to 10000,≥ 10000,250 to 10000,–

SMILES,IC50 (USP1-UAF1) [nM],IC50 ([1]; Homo sapiens) [nM],IC50 [2] [nM],IC50 [1] [nM]
COc1ncnc(C2CC2)c1-c1ncc2[nH]cc(C(c3ccc(-c4nc(C(F)(F)F)cn4C)cc3)C(C)C)c2n1 (centres unmarked) [Compound 145],30 to 100,250 to 10000,100 to 250,–
"CC(C)c1ccccc1-c1ncc2[nH]cc(Nc3ccc(-c4nc(C(F)(F)F)cn4C)cc3)c2n1 [Compound 62, 2-(2-isopropylphenyl)-N-[4-[1-methyl-4-(trifluoromethyl)imidazol-2-yl]phenyl]-5H-pyrrolo[3,2-d]pyrimidin-7-amine]",100 to 10000,250 to 10000,250 to 10000,–
CN(Cc1ccccc1-c1ncc2[nH]cc(Cc3ccc(-c4nc(C(F)(F)F)cn4C)cc3)c2n1)CC(F)(F)F [Compound 61],30 to 100,250 to 10000,250 to 10000,–
"COc1ncnc(C2CC2)c1-c1ncc2[nH]cc(C(O)c3ccc(-c4nc(C#N)cn4C)cc3)c2n1 (centres unmarked) [Compound 37, 2-[4-[[2-(4-cyclopropyl-6-methoxy-pyrimidin-5-yl)-5H-pyrrolo[3,2-d]pyrimidin-7-yl]-hydroxy-methyl]phenyl]-1-methyl-imidazole-4-carbonitrile]",≥ 10000,–,–,–
"Cn1cc(C(F)(F)F)nc1-c1ccc(Cc2n[nH]c3cnc(-c4c(Cl)ccnc4C4CC4)nc23)cc1 [Compound 156, 5-(4-chloro-2-cyclopropylpyridin-3-yl)-3-(4-(1-methyl-4-(trifluoromethyl)-1H-imidazol-2-yl)benzyl)-1H-pyrazolo[4,3-d]pyrimidine]",< 30,≥ 10000,< 100,–
"COc1ncnc(C2CC2)c1-c1ncc2[nH]cc([C@H](c3ccc(-c4nc(C(F)(F)F)cn4C)cc3)C(C)C)c2n1 (single isomer, unassigned) [Compound 208]",100 to 10000,250 to 10000,250 to 10000,–
"CO[C@H](c1ccc(-c2nc(C(F)(F)F)cn2C)cc1)c1c[nH]c2cnc(-c3c(OC(F)F)ncnc3C3CC3)nc12 (single isomer, unassigned) [Compound 149]",< 30,–,–,–
"Cn1cc(C(F)(F)F)nc1-c1ccc([S+]([O-])c2c[nH]c3cnc(-c4ccccc4C(F)(F)F)nc23)cc1 (centres unmarked) [Compound 36, 7-[4-[1-methyl-4-(trifluoromethyl)imidazol-2-yl]phenyl]sulfinyl-2-[2-(trifluoromethyl)phenyl]-5H-pyrrolo[3,2-d]pyrimidine]",100 to 10000,–,–,–
Cn1cc(C(F)(F)F)nc1-c1ccc(Cc2n[nH]c3cnc(-c4c(OCF)ncnc4C4CC4)nc23)cc1 [Compound 169],< 30,–,–,–
"COc1ncnc(C2CC2)c1-c1ncc2c(n1)c(Cc1ccc(-c3nc(C(F)(F)F)cn3C)cc1)cn2C1CC1 [Compound 170, 5-cyclopropyl-2-(4-cyclopropyl-6-methoxy-pyrimidin-5-yl)-7-[[4-[1-methyl-4-(trifluoromethyl)imidazol-2-yl]phenyl]methyl]pyrrolo[3,2-d]pyrimidine]",< 30,–,–,–
"COc1ncnc(C2CC2)c1-c1ncc2[nH]cc(C(C)c3ccc(-c4nc(C(F)(F)F)cn4C)cc3)c2n1 (single isomer, unassigned) [Compound 192]",–,–,–,250 to 10000
Cn1cc(C(F)(F)F)nc1-c1ccc(Cc2c[nH]c3cnc(-c4cccnc4N4CC(F)C4)nc23)cc1 [Compound 68],100 to 10000,–,–,–
CCn1c(C(F)(F)F)cnc1-c1ccc(Cc2c[nH]c3cnc(-c4c(OC)ncnc4C4CC4)nc23)cc1 [Compound 70],100 to 10000,–,–,–
COc1ncnc(C(C)(C)C)c1-c1ncc2[nH]nc(Cc3ccc(-c4nc(C(F)(F)F)cn4C)cc3)c2n1 [Compound 158],< 30,–,–,–
"Cn1cc(C(F)(F)F)nc1-c1ccc(S(=O)(=O)c2c[nH]c3cnc(-c4ccccc4C(F)(F)F)nc23)cc1 [Compound 46, 7-[4-[1-methyl-4-(trifluoromethyl)imidazol-2-yl]phenyl]sulfonyl-2-[2-(trifluoromethyl)phenyl]-5H-pyrrolo[3,2-d]pyrimidine]",100 to 10000,–,–,–
"COc1ncnc(C2CC2)c1-c1ncc2[nH]cc(C(O)c3ccc(-c4nc(C(F)(F)F)cn4C4CC4)cc3)c2n1 (centres unmarked) [Compound 19, [2-(4-cyclopropyl-6-methoxy-pyrimidin-5-yl)-5H-pyrrolo[3,2-d]pyrimidin-7-yl]-[4-[1-cyclopropyl-4-(trifluoromethyl)imidazol-2-yl]phenyl]methanol]",100 to 10000,–,–,–
